Experimental data as given in patent US11786528B2, “Pyrazolopyrimidine compounds as adenosine receptor antagonists” (EXSCIENTIA LTD., priority 2018, dated 2023).
Values after ≈ are worked out from the molar mass of the structure shown.

Key:
[1] = target: human adenosine receptor sub-type A2a (wild type) (Homo sapiens (Human), UniProt P29274); experiment: Affinity for human adenosine A2a receptor by surface plasmon resonance (SPR); type: binding
Protocol: (§1) Affinity for the human adenosine receptor sub-types (A2a, A2b, A1 and A3) was determined by surface plasmon resonance (SPR) using published methodologies (see below for further details).
(§2) Affinity for the human adenosine receptor sub-types (A2a, A2b, A1 and A3) was determined by SPR as described in Aristotelous, T., et al, Methods in Enzymology (2015), Volume 556, Chapter 23, pages 499-525 and Congreve, M., et al, J Med Chem (2012), Vol. 55, pages 1898-1903. The method used was analogous to the method used in Congreve, M., et al (see supplementary page S10) for the A2a receptor, but the wild type receptor was used rather than the proprietary StaR form.

[2] = target: human A2a receptors (HEK 293 transfected) (Homo sapiens (Human), UniProt P29274); experiment: Inhibition of cAMP release in HEK-A2aR cells (HTRF, LANCE Ultra cAMP); type: cell-based; conditions: 3 nM NECA, 10 min
Sequence of human A2a receptors (HEK 293 transfected) (P29274 whole entry): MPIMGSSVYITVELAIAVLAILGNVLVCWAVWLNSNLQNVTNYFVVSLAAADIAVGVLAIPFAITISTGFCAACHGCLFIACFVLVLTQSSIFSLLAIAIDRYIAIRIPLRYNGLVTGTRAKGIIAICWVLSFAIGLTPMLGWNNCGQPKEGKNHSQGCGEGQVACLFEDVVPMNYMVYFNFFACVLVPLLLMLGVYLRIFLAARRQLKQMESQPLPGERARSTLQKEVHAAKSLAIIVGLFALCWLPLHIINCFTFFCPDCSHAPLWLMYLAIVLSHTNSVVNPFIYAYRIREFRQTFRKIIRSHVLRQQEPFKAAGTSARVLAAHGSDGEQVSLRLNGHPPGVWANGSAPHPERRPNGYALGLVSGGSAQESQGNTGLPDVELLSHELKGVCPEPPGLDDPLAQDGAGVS
Protocol: Functional activity was measured by inhibition of cAMP release in HEK cells (see below for further details).
To screen A2a receptor inhibitors by HTRF technology, about 500 HEK-A2aR cells (HEK 293 transfected with human A2a receptors) were treated with inhibitors in presence of stimulation buffer (1×HBSS, 5 mM HEPES, 0.1% BSA stabilizer, pH 7.4) supplemented with 30 μM phosphodiesterase inhibitor Rolipram (to prevent cAMP degradation). This stimulation was immediately followed by treatment with 3 nM standard A2aR agonist (NECA) for 10 min under gentle shaking at room temperature. After that, inhibition of cAMP release was determined directly using LANCE Ultra cAMP assay (Perkin Elmer TRF0263).
All analysis was performed using GraphPad Prism 7.0 (GraphPad Software, San Diego, USA). Results are given, as EC50 (M).

[3] = target: human adenosine receptor sub-type A2b (Homo sapiens (Human), UniProt P29275); experiment: Affinity for human adenosine A2b receptor by SPR; type: binding; conditions: for IC50: SPR, human A2b receptor; for Relative selectivity for A2a v. A2b: from SPR IC50 values, rounded to 2 significant figures
Sequence of human adenosine receptor sub-type A2b (P29275 whole entry): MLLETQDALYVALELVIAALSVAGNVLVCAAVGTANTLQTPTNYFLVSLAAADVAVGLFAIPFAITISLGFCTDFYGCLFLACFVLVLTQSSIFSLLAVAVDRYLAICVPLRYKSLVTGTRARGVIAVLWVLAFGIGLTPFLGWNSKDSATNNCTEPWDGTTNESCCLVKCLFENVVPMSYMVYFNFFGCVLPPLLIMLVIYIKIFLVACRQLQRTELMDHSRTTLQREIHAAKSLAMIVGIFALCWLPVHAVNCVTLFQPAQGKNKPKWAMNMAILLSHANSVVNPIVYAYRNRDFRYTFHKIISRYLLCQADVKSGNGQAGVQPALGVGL
Protocol: as §1, §2

[4] = target: human adenosine receptor sub-type A1 (Homo sapiens (Human), UniProt P30542); experiment: Affinity for human adenosine A1 receptor by SPR; type: binding; conditions: for IC50: SPR, human A1 receptor; for Relative selectivity for A2a v. A1: from SPR IC50 values, rounded to 2 significant figures
Sequence of human adenosine receptor sub-type A1 (P30542 whole entry): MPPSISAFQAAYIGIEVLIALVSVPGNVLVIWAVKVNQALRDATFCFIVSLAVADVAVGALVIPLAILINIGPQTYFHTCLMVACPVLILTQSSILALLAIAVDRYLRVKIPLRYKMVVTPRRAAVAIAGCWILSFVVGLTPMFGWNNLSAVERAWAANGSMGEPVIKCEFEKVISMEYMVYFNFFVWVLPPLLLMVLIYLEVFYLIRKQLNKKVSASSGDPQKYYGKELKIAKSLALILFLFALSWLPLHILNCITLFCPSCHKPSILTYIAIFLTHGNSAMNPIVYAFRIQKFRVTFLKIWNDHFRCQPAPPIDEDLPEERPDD
Protocol: as §1, §2

[5] = target: human adenosine receptor sub-type A3 (Homo sapiens (Human), UniProt P0DMS8); experiment: Affinity for human adenosine A3 receptor by SPR; type: binding; conditions: for IC50: SPR, human A3 receptor; for Relative selectivity for A2a v. A3: from SPR IC50 values, rounded to 2 significant figures
Sequence of human adenosine receptor sub-type A3 (P0DMS8 whole entry): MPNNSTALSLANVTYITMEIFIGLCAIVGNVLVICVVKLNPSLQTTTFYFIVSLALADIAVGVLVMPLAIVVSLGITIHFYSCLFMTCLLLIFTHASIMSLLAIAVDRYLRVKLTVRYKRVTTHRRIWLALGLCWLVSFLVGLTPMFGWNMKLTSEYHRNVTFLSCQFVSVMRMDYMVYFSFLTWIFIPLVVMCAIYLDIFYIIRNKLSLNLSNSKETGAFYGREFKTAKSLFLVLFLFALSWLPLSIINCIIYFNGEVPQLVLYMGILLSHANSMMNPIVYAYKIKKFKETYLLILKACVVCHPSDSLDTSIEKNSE
Protocol: as §1, §2

Solubility = type: physicochemical; conditions: water (or specific buffer), thermodynamic from solid, overnight stirring at ambient temperature, LC-UV
From the text: The test compound in solid form was suspended in water (or specific buffer). After overnight stirring at ambient temperature protected from light, suspensions were filtered. An aliquot of the resulting supernatant was quantified using LC-UV method against a reference solution in DMSO obtained by preparation from powder.

Sequence of human adenosine receptor sub-type A2a (wild type) (P29274 whole entry): as the sequence (P29274 whole entry) above

| Compound | IC50 [1] | EC50 [2] | IC50 [3] | Relative selectivity for A2a v. A2b [3] | IC50 [4] | Relative selectivity for A2a v. A1 [4] | IC50 [5] | Relative selectivity for A2a v. A3 [5] | solubility (Solubility) |
| --- | --- | --- | --- | --- | --- | --- | --- | --- | --- |
| COc1ccccc1Cn1cc2c(N)nc(-c3ccc(C)o3)nc2n1 [Comparative Example 1, reference compound] | 2.2 nM | 18 nM | 4910 nM | 2200 | 114 nM | 51 | 1970 nM | 900 | 1 µg/mL (≈ 2.98 µM) |
| COc1cccc(Cn2cc3c(N)nc(-c4nccs4)nc3n2)c1 [Example 8, 2-[(3-methoxyphenyl)methyl]-6-(1,3-thiazol-2-yl)-2H-pyrazolo[3,4-d]pyrimidin-4-amine] | 11 nM | 23 nM |  |  |  |  |  |  | > 10 µg/mL |
| Cc1ccc(Cn2cc3c(N)nc(-c4ccsn4)nc3n2)cc1C(F)(F)F [Example 24, 2-{[4-methyl-3-(trifluoromethyl)phenyl]methyl}-6-(1,2-thiazol-3-yl)-2H-pyrazolo[3,4-d]pyrimidin-4-amine] | 7.9 nM | 11 nM | 25600 nM | 3200 | 1420 nM | 180 | 49900 nM | 6300 |  |
| COc1ccccc1Cn1cc2c(N)nc(-c3cnccn3)nc2n1 [Example 37, 2-[(2-methoxyphenyl)methyl]-6-(pyrazin-2-yl)-2H-pyrazolo[3,4-d]pyrimidin-4-amine] | 2.7 nM | 82 nM |  |  |  |  |  |  | > 10 µg/mL |
| COc1ccccc1Cn1cc2c(N)nc(-c3ccsn3)nc2n1 [Example 38, 2-[(2-methoxyphenyl)methyl]-6-(1,2-thiazol-3-yl)-2H-pyrazolo[3,4-d]pyrimidin-4-amine] | 4.3 nM | 13 nM | 11700 nM | 2700 | 3400 nM | 790 | 44300 nM | 10000 |  |

Other lines, results leading:

| IC50 [1] | EC50 [2] | IC50 [3] | Relative selectivity for A2a v. A2b [3] | IC50 [4] | Relative selectivity for A2a v. A1 [4] | IC50 [5] | Relative selectivity for A2a v. A3 [5] | solubility (Solubility) | Compound |
| --- | --- | --- | --- | --- | --- | --- | --- | --- | --- |
| 4.9 nM | 70 nM | 580 nM | 120 | 350 nM | 71 | 21000 nM | 4300 | > 10 µg/mL | COc1cccc(Cn2cc3c(N)nc(-c4cnco4)nc3n2)c1 [Example 11, 2-[(3-methoxyphenyl)methyl]-6-(1,3-oxazol-5-yl)-2H-pyrazolo[3,4-d]pyrimidin-4-amine] |
| 3.2 nM | 7 nM |  |  |  |  |  |  | > 50 µg/mL | Cc1cccc(Cn2cc3c(N)nc(-c4cnccn4)nc3n2)c1 [Example 27, 2-[(3-methylphenyl)methyl]-6-(pyrazin-2-yl)-2H-pyrazolo[3,4-d]pyrimidin-4-amine] |
| 2 nM | 13 nM | 1460 nM | 730 | 990 nM | 500 | 46200 nM | 23000 |  | COc1ccccc1Cn1cc2c(N)nc(-c3cnco3)nc2n1 [Example 40, 2-[(2-methoxyphenyl)methyl]-6-(1,3-oxazol-5-yl)-2H-pyrazolo[3,4-d]pyrimidin-4-amine] |
| 589 nM |  |  |  |  |  |  |  | > 50 µg/mL | COc1ccc(Cn2cc3c(N)nc(-c4cnccn4)nc3n2)cc1OC [Example 41, 2-[(3,4-dimethoxyphenyl)methyl]-6-(pyrazin-2-yl)-2H-pyrazolo[3,4-d]pyrimidin-4-amine] |
| 15 nM | 127 nM |  |  |  |  |  |  | > 50 µg/mL | Nc1nc(-c2ccsn2)nc2nn(Cc3ccccc3O)cc12 [Example 44, 2-{[4-amino-6-(1,2-thiazol-3-yl)-2H-pyrazolo[3,4-d]pyrimidin-2-yl]methyl}phenol] |
